Measured values as given in patent US20060073496A1, “Methods of identifying patients at risk of developing encephalitis following immunotherapy for Alzheimer's disease” (priority 2004, published 2006).
Values joined by “and” are separate entries in the source; they are usually repeats but may differ in a detail not shown here. Equal entries are not always repeated. “Also recorded” adds a separate entry of the source.

Legend:
[1] = cited from earlier work
PDAPP transgenic mouse = PDAPP transgenic mouse efficacy studies (titer needed to lessen neuropathological progression); assay type: in vivo
Source text: At present, the anti-AN1792 titer necessary to achieve a beneficial therapeutic effect in human AD is unknown. Whereas the PDAPP (platelet-derived growth factor-driven amyloid precursor protein) transgenic mouse develops several AD-like neuropathologies, the progression of pathology in this model may very well take a more aggressive course than in human AD, as the changes occur in months and the expression levels APP/Aβ are several fold higher than in nontransgenic species.

[2] = system: transgenic mouse models of cognitive impairment and amyloid plaque-associated CNS pathology; conditions: cited from earlier work
[3] = Phase I human trials of AN1792 (safety, tolerability, antibody responsiveness); assay type: in vivo; conditions: Phase I study
Source text: The U.K. trial enrolled about 80 patients and the U.S. trial enrolled about 24 patients with mild to moderate AD for the Phase I trials. […] Four of the participants developed signs of meningoencephalitis at an early phase of the clinical trial, and the trial was suspended. […] At the time the treatments were discontinued, the maximum number of immunization received was three (by 24 patients), with the majority of patients receiving two immunizations (274 patients) and two patients receiving one immunization. Ultimately, meningoencephalitis was reported in 18 of 300 immunized patients (Orgogozo (2003) supra).
Predictors of response were sought because the incidence of antibody responsiveness in the Phase I study was relatively low (48%), an incidence that would have more than doubled the number of patients required in a Phase II evaluation of efficacy (as measured by cognitive function) associated with anti-AN1792 antibody response. […] Consequently, blood samples were obtained from 123 treated U.S. patients (five of which developed meningoencephalitis) and 30 patients in the placebo group. Simultaneous analysis of the expression levels of approximately 22,000 sequences in each preimmune blood sample obtained from all consenting subjects was performed using the Affymetrix U133A GeneChip®. […]

[4] = Phase IIa placebo-controlled trial of AN1792 with QS-21 adjuvant: meningoencephalitis and follow-up; assay type: in vivo, human; conditions: for Meningoencephalitis patients: number of samples in pharmacogenomic study
Source text: The U.K. trial enrolled about 80 patients and the U.S. trial enrolled about 24 patients with mild to moderate AD for the Phase I trials.
Antibody responders were compared to placebo controls. […] Whole-trial analysis remains ongoing (Gilman, supra).
A total of 372 patients, 172 from the U.S. and 200 from the E.U., were enrolled in the clinical trial. […] Consent was obtained after approval by local institutional review boards.

[5] = cited from earlier work; remark: listed apart in the source
PBMCs = assay: Gene expression frequency (Affymetrix U133A) in PBMCs cultured overnight with AN1792 and immune adjuvant cocktail; association with encephalitis, IgG, IgM response, ApoE4 by ANOVA and GeneCluster; ratio to control culture; assay type: cell-based, human; conditions: 13 genes of Table 17, PBMCs cultured overnight, AN1792 10 μg/ml
Source text: Consent to the pharmacogenomic study was optional and obtained after approval by local institutional review boards in the U.S. (E.U. patients were not included in the pharmacogenomic study). Blood was collected from patients in the U.S. at the screening visit and was shipped overnight at room temperature to the Pharmacogenomic Laboratory in Andover, Mass. For each sample, the peripheral blood mononuclear cell (PBMC) fraction was purified by CPT fractionation, as described below, and 2×10^6 of these cells (the baseline sample, i.e., the first daughter sample for baseline measurements) were snap frozen; these represent cells that were not subject to in vitro culture (see. Example 1.1.3.1). The remaining cells were divided into four equal aliquots and cultured in vitro overnight in conditions described below. Cells were then harvested and snap frozen. […] The hypothesis behind this reasoning was that immunotherapeutic responsiveness may reflect a state of “preexisting readiness” to respond to AN1792, and this state may be reflected in the gene expression profile of PBMCs prior to immunotherapy. Accordingly, both AN1792-stimulated and control cultures were set up for each sample. Total RNA was purified from each sample, and RNA expression levels of each of 22,000 sequences were assayed, as described below. […]

AN1792 = assay: Postimmunization maximum anti-AN1792 IgG and IgM titer / response group of treated patients; assay type: in vivo, human
Source text: Relevant clinical data received from StatProbe, Inc. (Ann Arbor, Mich.) (pertaining to treatment group, maximum IgG titer for all visits, maximum IgM titer for all visits, ApoE4 type, and encephalitis status), along with demographic data and treatment group, were merged with the gene expression data by donor identification number (the randomization number that was assigned to each patient in the study).
The pharmacogenomic supplemental statistical analysis plan of this Example 1 defines IgG responders as having a maximum titer≧2200 at any time point. The maximum titer of partial IgG responders was >200<2200, and of nonresponders was ≦200. Patients with an IgM titer>100 at any time point are defined as IgM responders.
(Data from patients with maximum titers between 200 and 2200 were not used in the identification of statistically significant associations, but were analyzed once the statistical programs had identified genes of interest.)
Relevant clinical data pertaining to treatment group, maximum IgG titer for all visits, maximum IgM titer for all visits, encephalitis status, and demographic data were received from StatProbe, Inc. (Ann Arbor, Mich.). The clinical data were merged with the gene expression data by donor identification number.
Subjects were assigned to response groups based on postimmunization maximum titer during follow-up. For both IgM and IgG the response groups were: 1) nonresponders, (titer<200); 2) partial responders (200≦titer<2,200); and 3) responders (titer≧2200).

[6] = rabbit, single IM injection, tritium-labeled QS-21; cited from earlier work
[7] = cited from earlier work; remark: listed apart in the source
[8] = system: B and T cell effector function; conditions: QS-21 adjuvanted immunotherapeutics in mice, rabbits and monkeys; cited from earlier work
[9] = immunization with AN1792, transgenic mice
[10] = individual AN1792-treated patients with r^2 outlier samples (33, 22, 316, 765)
[11] = individual treated patients with post-CPT neutrophils >20%, one line per patient (17, 23, 36, 44, 271, 756), listed as Immunotherapy
[12] = number of samples in pharmacogenomic study, Female, of 57 treated
[13] = number of samples in pharmacogenomic study, Male, of 66 treated
[14] = number of samples in pharmacogenomic study, Total, of 123 treated

For “AN1792: a peptide immunogen consisting of Aβ1-42, the section of amyloid recognized as a major component of AD-related plaques”, the “CSF tau levels and battery of neuropsychological tests” value ([1]; antibody responders compared to placebo controls, follow-up) is listed as “gave results favoring patients with a positive IgG titer”, the “meningoencephalitis reported, patients of immunized patients” value ([1]; in vivo) is listed as 18 of 300 and the “β-amyloid plaques in brain at autopsy” value ([1]; one participant who died of causes unrelated to treatment) is listed as “significant areas of the brain lacked the β-amyloid plaques”. For the same substance, the “lowest titers that resulted in lessening of neuropathological progression” value (PDAPP transgenic mouse) was 1-2,000, the cognitive function [2, 9] was “improved cognitive function” and the “development of AD-like amyloid plaques, neuritic dystrophy, and gliosis” value [2, 9] was “inhibited the development of AD-like amyloid plaques, neuritic dystrophy, and gliosis”. For the same substance, the “performance in memory tests” value ([2]; mice treated with AN1792 versus placebo) was “improved performance in memory tests”, the “incidence of antibody responsiveness” value [3] was 48% and the “number of patients who developed meningoencephalitis” value ([4]; E.U. patients) was 12. The “number of patients who developed meningoencephalitis” value ([4]; U.S. patients) was 6, the Meningoencephalitis patients ([4]; Female) was 5 and the Meningoencephalitis patients ([4]; Total) was 5. For the same substance, the “development of amyloid antibodies” value ([5]; Phase I trials, mild to moderate AD) was “a portion of the participants developed amyloid antibodies”, the “tolerability in human recipients” value ([5]; in vivo) was “well tolerated” and the “effect of AN1792 stimulation on gene expression frequency (AN1792-stimulated versus control culture)” value (PBMCs) was “decrease in gene expression frequency”. For the same substance, the IgG response group (AN1792; [10]) was “Nonresponder (of nonresponders was ≦200); also recorded: IgG responder (IgG responders as having a maximum titer≧2200 at any time point)”, the IgM response group (AN1792; [10]) was “IgM responder (maximum IgM titer>100 (responders)); also recorded: Nonresponder (maximum IgM titer<100 (nonresponders))” and the “Maximum IgG Titer” value (AN1792; [11]) was 50 (3×) and 4111 and 126 and 172. For the same substance, the “Maximum IgM Titer” value (AN1792; [11]) was 13275 and 957 and 28554, the “Treated IgG nonresponders” value (AN1792; [12]) was 28 and the “Treated IgG partial responders” value (AN1792; [12]) was 16. The “Treated IgG responders” value (AN1792; [12]) was 13, the “Treated IgM nonresponders” value (AN1792; [12]) was 16 and the “Treated IgM partial responders” value (AN1792; [12]) was 21. For the same substance, the “Treated IgG nonresponders” value (AN1792; [13]) was 42, the “Treated IgG partial responders” value (AN1792; [13]) was 12 and the “Treated IgG responders” value (AN1792; [13]) was 12. The “Treated IgM nonresponders” value (AN1792; [13]) was 28, the “Treated IgM partial responders” value (AN1792; [13]) was 18 and the “Treated IgG nonresponders” value (AN1792; [14]) was 70. The “Treated IgG partial responders” value (AN1792; [14]) was 28, the “Treated IgM nonresponders” value (AN1792; [14]) was 44 and the “Treated IgM partial responders” value (AN1792; [14]) was 39. The “Treated IgM responders” value (AN1792; [14]) was 40 and the “incidence of responsiveness (IgG titer>200), patients of treated patients” value (AN1792; treated U.S. patients of the pharmacogenomic study, Example 2) was 53 of 123.
In the case of QS-21, the distribution [6] is given as “highly concentrated in the lymph nodes draining the injection area”, the excretion [6] is given as “Excretion occurs primarily through the kidneys” and the “white blood cell counts and creatinine kinase” value ([7]; rabbit toxicity studies) is given as “Slight alterations in white blood cell counts (leukocytosis and leukopenia) and creatinine kinase”. For the same substance, the organ toxicity ([7]; rabbit, single or multiple injections, QS-21 alone or combined with antigens) was “no significant organ toxicity” and the “effect on immune effector function” value [8] was “improvement in B and T cell effector function”.
